These results are taken from patent EP0778025A1, “Use of 8,9-dehydroestrone for the manufacture of a medicament for the treatment of diseases caused by free radicals” (AMERICAN HOME PRODUCTS CORPORATION, priority 1995, dated 1997).

The IC50 is the concentration needed to halve the response being measured. The low end stands for higher potency, the high end for lower potency.

Series [1] has as its system porcine aortic endothelial cells (PAEC). Kind of series: MTT cytotoxicity assay of porcine aortic endothelial cells exposed to Cu++-treated LDL. The class given is cell-based. As to conditions: 25 ug/ml LDL Cu++ treated in presence of compound (2.5µM stated for 8,9-dehydroestrone), 24 hr incubation, 2% viable without compound. The procedure:
In the second test procedure, porcine aortic endothelial cells (PAEC) were exposed to LDL that had been modified as above, by exposure to Cu++ in the presence and absence of 8,9-dehydroestrone. […] Subsequent to a 24 hr incubation of the cells with the treated LDL, an MTT assay was performed to assess cytotoxicity (Hansen MB, J Immu Methods 119:203-210 (1989)). This test procedure assesses the percent of cells that are viable (live) in a given assay. In the assay, following exposure to 25 ug/ml LDL oxidized in the absence of compound, only 2% of the cells remained viable. In contrast, the percent live cells following exposure to LDL Cu++ treated in the presence of 8,9-dehydroestrone (2.5µM) was 100% or greater.

The subject of a further series is J774 macrophages. Kind of series: Binding of Cu++-treated 125I-LDL to J774 macrophages (scavenger lipoprotein receptors). The settings on record: Mus musculus. Format: cell-based. An excerpt:
In the first test procedure, radiolabeled-LDL (^125I-LDL) (McFarlane AS, In: Munro HN, Allison JB, eds. Mammalian Protein metabolism, Vol. 1. New York: Academic Press 297-341 (1964)) was modified by exposure to Cu++ in the presence and absence of 8,9-dehydroestrone. Next, J774 macrophages, which express scavenger lipoprotein receptors which bind oxidatively modified-LDL, were exposed to the treated ^125I-LDL. […] By comparison, the same concentrations of estrone reduced the binding of LDL that was oxidized by 39% and 0%, respectively. Since binding and metabolism of oxidized LDL by macrophages is though to contribute strongly to the development of foam cells and therefore, atherosclerotic plaque, this effect of reducing LDL oxidation and subsequent binding to scavenger receptors is thought to be of significant benefit.

In series [2] the test system is low density lipoprotein (LDL). The experiment in a line: Inhibition of Cu++ mediated LDL oxidation (TBARS method).
The mark [3] stands for this setting: J774, read-out: reduction of binding of the LDL that was oxidized.

The structures appear in SMILES notation. Read-outs that look alike come from different tables or passages of the source.

Turning to `C[C@]12CCC3=C(CCc4cc(O)ccc43)[C@@H]1CCC2=O` [8,9-dehydroestrone], the percent live cells in series [1] was at least 100%. In the series with J774 macrophages (setting [3]), the inhibition at 0.25 µM worked out at 56% and the inhibition at 2.5 µM is 72%. The compound also showed a 50% inhibitory concentration (IC50) in series [2] (Cu++ mediated LDL oxidation, TBARS) of 220 nM. The “inhibition of LDL oxidation” value in series [2] (maximal inhibition, stated for the test procedure in general (Cu++ or endothelial cell induced)) was at most 100%.
Regarding `C[C@]12CC[C@H]3C(=CCc4cc(O)ccc43)[C@@H]1CCC2=O` [Equilin, reference compound], the percent live cells in series [1] is given as 4%.
As for `C[C@]12CC[C@@H]3c4ccc(O)cc4CC[C@H]3[C@@H]1CCC2=O` [estrone], the inhibition at 0.25 µM in the series with J774 macrophages (0.25 µM compound present during Cu++ oxidation of 125I-LDL, J774 macrophages, read-out: reduction of binding of the LDL that was oxidized) was found to be 0%. The inhibition at 2.5 µM in the series on J774 macrophages (2.5 µM compound present during Cu++ oxidation of 125I-LDL, J774 macrophages, read-out: reduction of binding of the LDL that was oxidized) is 39%.
